Values of other authors in patent publication US7625708B1 (priority 2005, dated 2009).

Assays:
[1] = rabbit, in vivo
[2] = test system: Aldehyde Dehydrogenase (ALDH)
[3] = test system: Glutathion-S-Transferase (GST)
[4] = test system: NAD(P)H: Quinone Oxidoreductase I (NQO I)
[5] = test system: Cytochrome P450 1A1 (CYP 1A1)
GDNF mRNA = details: rat, in vivo

## CNC(=O)ON=C(C)SC [methomyl]
[1]
  detection in the hair shaft: could be detected

## Cc1ccc2cc3c(ccc4ccccc43)c3c2c1CC3 [methylcholanthrene]
[2]
  induction of ALDH: showed induction of ALDH (cell culture)
[3]
  induction of GST: showed induction of GST (cell culture)
[4]
  induction of NQO I: showed induction of NQO I (cell culture)
[5]
  CYP1A1 activity: showed increase CYP1A1 activity (cell

## c1ccc(C2(N3CCCCC3)CCCCC2)cc1 [phencyclidine]
GDNF mRNA
  GDNF mRNA expression: GDNF mRNA expression increased in rats

## CCC1(c2ccccc2)C(=O)NC(=O)NC1=O [phenobarbital]
[5]
  CYP1A1 activity: showed increase CYP1A1 activity (cell

## O=c1cc(-c2ccccc2)oc2ccc3ccccc3c12 [β-naphthaoflavone]
[5]
  CYP1A1 activity: showed increase CYP1A1 activity (cell
